Consider 7 compounds from ChEMBL document CHEMBL1201862, “PubChem BioAssay data set” (2004).

Each structure is given as a SMILES string. The source made the active and inactive calls.

The target in experiment [1] is 1-phosphatidylinositol 4,5-bisphosphate phosphodiesterase gamma-1 (Homo sapiens, UniProt P19174). Description: Counterscreen for inhibitors of phospholipase C isozymes (PLC-B3): Fluorescence-based biochemical high throughput dose response assay to identify inhibitors of phospholipase C isozymes (PLC-gamma1). A general note: The purpose of a counterscreen is to sort out artefacts and off-target activity.
Chain of 1-phosphatidylinositol 4,5-bisphosphate phosphodiesterase gamma-1 (P19174 whole entry): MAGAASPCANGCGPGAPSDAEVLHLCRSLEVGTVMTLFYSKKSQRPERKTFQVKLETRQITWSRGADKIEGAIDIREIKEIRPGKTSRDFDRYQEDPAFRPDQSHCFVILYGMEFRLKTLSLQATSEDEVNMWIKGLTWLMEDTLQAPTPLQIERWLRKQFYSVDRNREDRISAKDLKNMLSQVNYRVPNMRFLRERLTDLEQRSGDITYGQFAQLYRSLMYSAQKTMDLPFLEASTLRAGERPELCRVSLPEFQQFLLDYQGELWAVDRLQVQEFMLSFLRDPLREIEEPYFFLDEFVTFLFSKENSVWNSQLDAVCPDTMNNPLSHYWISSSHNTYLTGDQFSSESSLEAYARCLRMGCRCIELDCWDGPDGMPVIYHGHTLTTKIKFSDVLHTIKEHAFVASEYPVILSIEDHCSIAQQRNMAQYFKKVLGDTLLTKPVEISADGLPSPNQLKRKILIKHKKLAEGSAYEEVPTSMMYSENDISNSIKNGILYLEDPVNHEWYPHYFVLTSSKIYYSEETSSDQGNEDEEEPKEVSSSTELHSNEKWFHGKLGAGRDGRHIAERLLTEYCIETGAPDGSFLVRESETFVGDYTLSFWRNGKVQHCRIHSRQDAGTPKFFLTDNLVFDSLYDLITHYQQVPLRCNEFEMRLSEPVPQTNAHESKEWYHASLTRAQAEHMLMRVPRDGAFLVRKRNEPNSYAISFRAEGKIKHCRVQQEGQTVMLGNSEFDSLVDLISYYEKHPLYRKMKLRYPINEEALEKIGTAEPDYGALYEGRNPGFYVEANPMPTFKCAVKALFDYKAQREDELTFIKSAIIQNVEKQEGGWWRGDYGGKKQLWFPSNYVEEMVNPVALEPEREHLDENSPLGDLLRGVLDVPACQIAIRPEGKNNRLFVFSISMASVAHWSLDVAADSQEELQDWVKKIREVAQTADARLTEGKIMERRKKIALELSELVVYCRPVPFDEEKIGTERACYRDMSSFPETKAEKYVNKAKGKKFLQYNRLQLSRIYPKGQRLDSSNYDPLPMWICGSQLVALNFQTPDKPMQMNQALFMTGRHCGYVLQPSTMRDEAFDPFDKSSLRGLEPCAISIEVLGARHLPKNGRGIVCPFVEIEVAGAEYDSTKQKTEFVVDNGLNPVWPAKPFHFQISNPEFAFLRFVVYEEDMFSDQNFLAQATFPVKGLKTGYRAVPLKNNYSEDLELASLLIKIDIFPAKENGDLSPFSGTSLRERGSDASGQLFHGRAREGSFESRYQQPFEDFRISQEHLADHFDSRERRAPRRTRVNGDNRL

Experiment [2] addresses 1-phosphatidylinositol 4,5-bisphosphate phosphodiesterase beta-3 (Homo sapiens, UniProt Q01970). Description: Fluorescence-based biochemical high throughput dose response assay to identify inhibitors of phospholipase C isozymes (PLC-B3).
Experiment [3] can be described thus: ADAM10 inhibitors, peptide cleavage, dose response, biochemical, QFRET (AID 743254).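 Also: ADAM10 enzyme with the DM2 quenched FRET peptide as substrate; EDANS fluorescence gain as the protease cuts the substrate; inhibitor potency against ADAM10 proteolytic activity.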
The target in experiment [4] is Disintegrin and metalloproteinase domain-containing protein 17 (Homo sapiens, UniProt P78536). Description: ADAM17 protease inhibitors, dose response, counter-screen for ADAM10 exosite inhibitor project, biochemical, quenched FRET substrate (AID 743253).
Chain of Disintegrin and metalloproteinase domain-containing protein 17 (P78536 whole entry, the tested form may be a part): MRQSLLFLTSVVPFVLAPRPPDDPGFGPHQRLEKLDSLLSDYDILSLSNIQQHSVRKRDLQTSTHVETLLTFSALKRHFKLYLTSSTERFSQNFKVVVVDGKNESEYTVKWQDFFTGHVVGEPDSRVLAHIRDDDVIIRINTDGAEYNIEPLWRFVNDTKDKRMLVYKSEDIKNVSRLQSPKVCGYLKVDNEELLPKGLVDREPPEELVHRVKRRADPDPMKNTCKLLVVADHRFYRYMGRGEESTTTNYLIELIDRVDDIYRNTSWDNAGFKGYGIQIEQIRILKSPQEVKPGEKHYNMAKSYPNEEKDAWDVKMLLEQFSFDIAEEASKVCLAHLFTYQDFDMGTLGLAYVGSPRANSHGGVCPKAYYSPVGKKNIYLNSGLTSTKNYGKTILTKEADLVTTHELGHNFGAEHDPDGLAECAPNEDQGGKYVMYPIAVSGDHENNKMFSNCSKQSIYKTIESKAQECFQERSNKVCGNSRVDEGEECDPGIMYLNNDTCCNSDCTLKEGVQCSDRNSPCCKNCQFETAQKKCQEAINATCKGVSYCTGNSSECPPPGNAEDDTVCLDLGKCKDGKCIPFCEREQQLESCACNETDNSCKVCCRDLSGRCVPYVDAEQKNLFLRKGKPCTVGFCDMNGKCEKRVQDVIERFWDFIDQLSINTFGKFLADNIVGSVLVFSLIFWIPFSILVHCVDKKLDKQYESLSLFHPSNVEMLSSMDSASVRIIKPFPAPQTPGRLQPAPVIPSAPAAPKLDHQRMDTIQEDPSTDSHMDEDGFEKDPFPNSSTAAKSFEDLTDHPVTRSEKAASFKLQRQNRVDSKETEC
The target in experiment [5] is Dual specificity tyrosine-phosphorylation-regulated kinase 1A (Rattus norvegicus, UniProt Q63470). Format: biochemical, Homo sapiens.
For experiment [6], the target named is T1, Sentrin-specific protease 1 (Homo sapiens, UniProt Q9P0U3).
T1 sequence (Q9P0U3 whole entry): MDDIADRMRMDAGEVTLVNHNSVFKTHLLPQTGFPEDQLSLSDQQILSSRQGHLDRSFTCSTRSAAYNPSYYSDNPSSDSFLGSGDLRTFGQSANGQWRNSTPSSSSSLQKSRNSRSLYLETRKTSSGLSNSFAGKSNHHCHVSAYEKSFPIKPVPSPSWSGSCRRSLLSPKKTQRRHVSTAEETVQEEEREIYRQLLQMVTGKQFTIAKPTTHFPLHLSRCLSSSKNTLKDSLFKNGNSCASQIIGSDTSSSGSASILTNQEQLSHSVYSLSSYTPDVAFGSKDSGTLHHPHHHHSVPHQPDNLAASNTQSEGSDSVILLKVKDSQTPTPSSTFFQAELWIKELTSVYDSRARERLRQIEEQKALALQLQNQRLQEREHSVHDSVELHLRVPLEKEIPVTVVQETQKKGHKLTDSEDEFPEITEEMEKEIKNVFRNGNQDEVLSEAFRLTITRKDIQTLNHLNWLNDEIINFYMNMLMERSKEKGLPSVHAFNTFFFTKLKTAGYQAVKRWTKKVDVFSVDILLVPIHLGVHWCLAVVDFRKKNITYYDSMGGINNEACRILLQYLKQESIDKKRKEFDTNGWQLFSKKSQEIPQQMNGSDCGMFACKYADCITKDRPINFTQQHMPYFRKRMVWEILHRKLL
Description: potency of human SENP1 inhibitors, dose response, biochemical, kinetic FRET (AID 651697). The format is functional. The conditions noted are these: read-out: IC50_Mean.

Experiment [7] deals with T1, Sentrin-specific protease 1. Description: Dose response confirmation of small molecule inhibitors of the catalytic domain of the SUMO protease, SENP1 in a FRET assay. The conditions noted are these: read-out: IC50_Mean. The format is functional.
Experiment [8] can be described thus: ZM109 Env clade C HIV-1 fusion inhibitors, dose response, HeLa effector, CEM target cells, luciferase, cherry-pick (AID 652058). Format: functional, cell-based.
Experiment [9] can be described thus: off-target signal loss in HeLa-CEM21 co-culture – HeLa F-luc CTL cells, cherry-picked, counter-screen for HIV-1 Env fusion inhibitor project, dose response (AID 652040).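 Also: potency for signal decrease marking cytotoxic or nonspecific inhibition.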 Format: functional, cell-based.
For a further experiment, the target named is Paired box protein Pax-8 (Homo sapiens, UniProt Q06710). Description: inhibitors of PAX8-driven TPO luciferase reporter, dose response, RMG-I cells, cherry-pick (AID 687027).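 Also: luciferase reporter driven by Pax8 target thyroperoxidase promoter measured by SteadyGlo luminescence.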 The format is functional, cell-based. A general note: Reporter assays use an easily measured gene product as a stand-in for the process of interest.
Chain of Paired box protein Pax-8 (Q06710 whole entry): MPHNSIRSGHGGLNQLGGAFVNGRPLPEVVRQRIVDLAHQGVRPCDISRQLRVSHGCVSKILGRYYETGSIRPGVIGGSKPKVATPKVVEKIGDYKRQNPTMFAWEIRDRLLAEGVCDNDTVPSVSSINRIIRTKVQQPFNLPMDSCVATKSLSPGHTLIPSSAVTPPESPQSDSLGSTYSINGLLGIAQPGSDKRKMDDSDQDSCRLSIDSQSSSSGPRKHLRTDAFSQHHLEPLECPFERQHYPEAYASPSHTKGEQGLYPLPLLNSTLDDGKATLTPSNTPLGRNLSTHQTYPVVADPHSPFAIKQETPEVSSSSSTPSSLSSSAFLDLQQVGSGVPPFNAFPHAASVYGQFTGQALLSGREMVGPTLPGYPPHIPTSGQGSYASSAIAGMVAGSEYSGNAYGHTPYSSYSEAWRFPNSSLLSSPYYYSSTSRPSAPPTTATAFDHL
Experiment [10] is described as follows: IOSE-T80 ovarian epithelial cell cytotoxicity, dose response, cytotoxicity control for PAX8 inhibitor project, plate reader, dry powder samples (AID 743045). The format is functional, cell-based.
The nature of experiment [11]: NIH:OVCAR-3 ovarian cancer cell cytotoxicity, dose response, PAX8 inhibitor project, plate reader, dry powder samples (AID 743044). The format is functional, cell-based.
The nature of experiment [12]: IGROV1 ovarian cancer cell cytotoxicity, dose response, PAX8 inhibitor project, plate reader, dry powder samples (AID 743043). The conditions noted are these: IGROV-1. The format is functional, cell-based.
Experiment [13] in a line: cytotoxicity in OVCAR8 ovarian cancer cells, dose response, PAX8 project, cell-based, plate reader, dry powder samples (AID 743197). Format: functional. The conditions noted are these: OVCAR-8.
A short description of experiment [14]: A549 cell cytotoxicity, dose response, cytotoxicity control, plate reader, cherry-pick, antagonist series (AID 743412). The format is functional, cell-based.
Experiment [15] can be described thus: HepG2 cell cytotoxicity, dose response, cytotoxicity control, plate reader, cherry-pick, antagonist series (AID 743416). Format: functional, cell-based.
Experiment [16] is described as follows: LGR2 antagonists, dose response, cell-based, HEK293, CRE-luciferase reporter, cherry pick, set 2 (AID 743343).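 Also: transfected cells were stimulated with diluted bursicon conditioned medium after compound addition.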 Format: functional.
Experiment [17] can be described thus: MC4R antagonists, dose response, counter-screen for LGR2 antagonist project, cell-based, plate reader, cherry pick (AID 743444).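 Also: transfected HEK 293 cells stimulated with alpha-MSH peptide; potency of inhibitors of the alpha-MSH evoked signal.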 Format: functional.
A short description of experiment [18]: HEK293 cell cytotoxicity, dose response, cytotoxicity control, plate reader, cherry-picked samples (AID 743446). The format is functional, cell-based.
The next experiment relates to Vero. Description: Vero cell toxicity, dose response, cytotoxicity control, plate reader, cherry-pick samples (AID 687020). The conditions noted are these: Chlorocebus sabaeus. The format is functional, cell-based.
A short description of experiment [19]: Shn3 3'UTR reporter inhibitors, dose response, cell-based, Clone20 osteoblasts, firefly luciferase, cherry-picked (AID 624132).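 Also: firefly luciferase luminescence from reporter carrying the Shn3 3'UTR in osteoblasts.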 The format is functional.
Experiment [20] can be described thus: control 3'UTR Renilla luciferase suppression, dose response, counter-screen for Shn3 inhibitor project, cell-based, Clone20-Shn3RL, cherry-picked (AID 624133). Format: functional.

Chain of 1-phosphatidylinositol 4,5-bisphosphate phosphodiesterase beta-3 (Q01970 whole entry): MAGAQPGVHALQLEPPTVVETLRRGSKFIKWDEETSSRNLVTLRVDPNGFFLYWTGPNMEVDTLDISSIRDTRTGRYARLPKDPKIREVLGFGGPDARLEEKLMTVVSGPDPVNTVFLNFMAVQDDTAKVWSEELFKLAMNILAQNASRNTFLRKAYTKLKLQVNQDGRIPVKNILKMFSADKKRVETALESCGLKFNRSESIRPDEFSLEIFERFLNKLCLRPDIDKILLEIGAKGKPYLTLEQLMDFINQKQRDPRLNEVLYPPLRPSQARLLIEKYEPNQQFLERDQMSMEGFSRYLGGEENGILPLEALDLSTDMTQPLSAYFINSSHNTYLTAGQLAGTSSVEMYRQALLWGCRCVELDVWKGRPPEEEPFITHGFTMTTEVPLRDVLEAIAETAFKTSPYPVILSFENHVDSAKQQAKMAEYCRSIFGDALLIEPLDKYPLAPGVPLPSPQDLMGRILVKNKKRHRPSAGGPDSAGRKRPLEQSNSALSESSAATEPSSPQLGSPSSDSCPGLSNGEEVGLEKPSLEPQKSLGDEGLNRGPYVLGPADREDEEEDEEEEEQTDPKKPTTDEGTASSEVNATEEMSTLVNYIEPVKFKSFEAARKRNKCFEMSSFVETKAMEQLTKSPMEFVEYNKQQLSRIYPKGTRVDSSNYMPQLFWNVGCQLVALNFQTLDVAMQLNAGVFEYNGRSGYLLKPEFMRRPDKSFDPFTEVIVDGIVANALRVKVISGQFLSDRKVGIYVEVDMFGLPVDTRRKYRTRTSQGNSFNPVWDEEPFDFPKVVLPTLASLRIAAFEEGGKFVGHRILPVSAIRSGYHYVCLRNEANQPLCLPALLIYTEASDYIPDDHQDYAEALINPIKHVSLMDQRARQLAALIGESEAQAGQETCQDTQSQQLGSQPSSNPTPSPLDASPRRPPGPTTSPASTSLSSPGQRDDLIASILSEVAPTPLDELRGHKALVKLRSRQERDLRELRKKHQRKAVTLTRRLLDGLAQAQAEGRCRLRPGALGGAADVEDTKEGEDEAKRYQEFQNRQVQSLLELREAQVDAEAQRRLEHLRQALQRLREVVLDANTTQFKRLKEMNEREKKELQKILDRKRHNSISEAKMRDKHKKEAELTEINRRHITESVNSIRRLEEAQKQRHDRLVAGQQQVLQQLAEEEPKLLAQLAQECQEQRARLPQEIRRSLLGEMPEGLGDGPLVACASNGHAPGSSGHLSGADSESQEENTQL

For the compound `CC(=O)N1C[C@@H](c2c[nH]c3ccccc23)C=C[C@H]1C(=O)NS(=O)(=O)c1ccc(C)cc1`, the figures for the IC50 in [1] and in experiment [2] were > 4.54 µM (active) and > 122 µM (inactive), respectively.

With `CCOc1ccc(/C=N/NC(=O)Cc2csc(Nc3cccc(C(F)(F)F)c3)n2)c(OCC)c1`, the IC50 in experiment [3] and in experiment [4] was > 69.5 µM (inactive) throughout.

As to `Cc1ccc2c(c1)C(=C(C#N)C#N)CCN2`, the results for the concentration at half-maximal activity (AC50) in experiment [5], in experiment [8] and in experiment [9] were 5.69 µM (active), 2 µM (active) and 42.3 µM (active), respectively. The IC50 in experiment [6] was 20.1 µM (inactive); in experiment [7], 11 µM (active).

For `Cc1cccc(S(=O)(=O)N2CCCCN3[C@H](CO)[C@H](c4ccc(C#CC(C)C)cc4)[C@H]3C2)c1`, the concentration at half-maximal activity (AC50) is 9.99 µM (active) at Paired box protein Pax-8; 36.9 µM (active) in experiment [10]; 9.65 µM (active) in experiment [11]; 39.5 µM (active) in experiment [12]; 28.4 µM (active) in experiment [13].

For the compound `CCCCc1c(-c2cccc(OC)c2)ncn1CCc1ccccc1OC`, the AC50 in experiment [14] was 19.2 µM (active); in experiment [15], 15.1 µM (active); in experiment [16] it was 16.3 µM (active); in [17], 12.9 µM (active); in experiment [18], 29 µM (active).

In the case of `CSc1ccc(S(=O)(=O)NC2CC3CCC2C3)cc1` (stereo not given), in the experiment on Vero, the concentration at half-maximal activity (AC50) was 16.8 µM (active).

Take `C=CCC[C@H](Cc1ccc(F)cc1)C(=O)OC[C@H](Cc1c[nH]c2ccccc12)NC(=O)[C@H](CC=C)CC(=O)N(CCO)Cc1ccccc1`: the values for the AC50 (in experiment [19]; in [20]; at Paired box protein Pax-8) were 11.7 µM (active), 20.1 µM (active) and 12.9 µM (active), respectively. For the same compound, the values for the IC50 in experiment [3] and in experiment [4] were 6.93 µM (active) and > 69.5 µM (inactive), respectively.

By AC50 is commonly meant the midpoint of the concentration-response curve, whichever way the signal moves.
